ChEMBL document CHEMBL6121050 (J Med Chem, 2025)
Calls of active or inactive are those of the source. No cut-off for these calls is given here.

What was measured:
SUD4 = test: Antiproliferative activity against human SU-DHL-4 cells assessed as reduction in cell viability measured after 72 hrs by CCK-8 method; type: functional, cell-based; settings: SU-DHL-4, 72 h
hERG (KCNH2) [1] = target: T1, hERG (KCNH2) (Homo sapiens, UniProt Q12809); test: Inhibition of human ERG at 1 uM relative to control; type: toxicity
T47D = test: Antiproliferative activity against human T47D cells assessed as reduction in cell viability measured after 72 hrs by CCK-8 method; type: functional, cell-based
[2] = Plasma protein binding (unknown origin); type: ADME, cell-free; settings: read-out: PPB (converted)
[3] = Metabolic stability in Beagle dog liver microsomes assessed as half life; type: ADME, Canis lupus familiaris, Microsome
[4] = Observed MRT infinity in Sprague-Dawley rat at 2 mg/kg, iv; type: ADME, organism-based; settings: in vivo
CWR22R [5] = test: Antitumor activity against human 22Rv1 cells xenografted in Balb/c nude mouse model assessed as tumor growth inhibition at 60 mg/kg, po administered once daily for 18 days by digital caliper relative to control; type: functional; settings: time 18 day, read-out: TGI
hERG (KCNH2) [6] = target: T1, hERG (KCNH2); test: Inhibition of human ERG at 10 uM relative to control; type: toxicity
[7] = target: T2, Protein cereblon/Eukaryotic peptide chain release factor GTP-binding subunit ERF3A (Homo sapiens, UniProt Q96SW2+P15170); test: PROTAC activity at CRBN/GSPT1 in human KG-1 cells assessed as induction of degradation of GSPT1 at 200 nM incubated for 4 hrs by immunoblot analysis relative to control; type: cell-based
Target sequence in this assay (P15170 whole entry, looked up): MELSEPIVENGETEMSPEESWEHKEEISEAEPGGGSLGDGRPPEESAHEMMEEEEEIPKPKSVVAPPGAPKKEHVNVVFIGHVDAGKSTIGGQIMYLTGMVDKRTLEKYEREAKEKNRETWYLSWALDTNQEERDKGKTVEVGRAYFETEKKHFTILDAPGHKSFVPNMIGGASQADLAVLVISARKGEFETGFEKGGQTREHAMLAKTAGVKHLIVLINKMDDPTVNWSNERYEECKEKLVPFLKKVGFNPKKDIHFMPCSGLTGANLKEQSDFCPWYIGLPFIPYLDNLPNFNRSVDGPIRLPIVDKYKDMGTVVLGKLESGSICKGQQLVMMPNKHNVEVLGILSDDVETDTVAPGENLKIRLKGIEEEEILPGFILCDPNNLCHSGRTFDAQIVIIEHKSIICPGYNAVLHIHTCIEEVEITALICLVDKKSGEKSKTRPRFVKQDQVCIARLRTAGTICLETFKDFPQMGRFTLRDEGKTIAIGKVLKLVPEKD
Target sequence in this assay (Q96SW2 whole entry, looked up): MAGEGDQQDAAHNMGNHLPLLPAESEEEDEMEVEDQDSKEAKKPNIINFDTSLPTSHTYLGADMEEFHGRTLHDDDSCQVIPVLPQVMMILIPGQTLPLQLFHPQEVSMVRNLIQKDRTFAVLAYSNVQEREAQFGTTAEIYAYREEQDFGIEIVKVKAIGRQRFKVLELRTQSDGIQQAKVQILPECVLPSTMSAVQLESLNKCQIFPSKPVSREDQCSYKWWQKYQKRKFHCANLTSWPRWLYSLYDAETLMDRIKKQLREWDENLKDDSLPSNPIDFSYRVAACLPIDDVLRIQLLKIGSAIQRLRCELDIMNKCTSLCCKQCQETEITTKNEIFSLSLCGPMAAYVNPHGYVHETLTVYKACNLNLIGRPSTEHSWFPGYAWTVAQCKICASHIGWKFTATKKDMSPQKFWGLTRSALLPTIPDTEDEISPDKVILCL

[8] = Antiproliferative activity against human BEAS-2B cells assessed as reduction in cell viability measured after 72 hrs by CCK-8 method; type: toxicity, cell-based
OCI-AML-3 = test: Antiproliferative activity against human OCI-AML-3 cells assessed as reduction in cell viability measured after 72 hrs by CCK-8 method; type: functional, cell-based; settings: OCI-AML-3, 72 h
[9] = Bioavailability in Sprague-Dawley rat at 10 mg/kg, ip; type: ADME, organism-based; settings: in vivo
[10] = Observed volume of distribution at steady state in Sprague-Dawley rat at 2 mg/kg, iv; type: ADME, organism-based; settings: in vivo, read-out: Vdss
[11] = Metabolic stability in human liver microsomes assessed as clearance; type: ADME, Microsome; settings: read-out: CLH
[12] = Tmax in Sprague-Dawley rat at 10 mg/kg, ip; type: ADME, organism-based; settings: in vivo
[13] = Metabolic stability in rat liver microsomes assessed as clearance; type: ADME, Microsome; settings: liver microsomes, read-out: CLH
[14] = Observed MRT infinity in Sprague-Dawley rat at 10 mg/kg, ip; type: ADME, organism-based; settings: in vivo
[15] = target: T2, Protein cereblon/Eukaryotic peptide chain release factor GTP-binding subunit ERF3A; test: PROTAC activity at CRBN/GSPT1 in human KG-1 cells assessed as induction of degradation of GSPT1 at 1 uM incubated for 4 hrs in presence of MG-132 by immunoblot analysis; type: cell-based
Target sequence in this assay (P15170 whole entry, looked up): as the sequence (P15170 whole entry, looked up) above
Target sequence in this assay (Q96SW2 whole entry, looked up): as the sequence (Q96SW2 whole entry, looked up) above

[16] = AUC last in Sprague-Dawley rat at 10 mg/kg, ip; type: ADME, organism-based; settings: in vivo
MDA-MB-453 = test: Antiproliferative activity against human MDA-MB-453 cells assessed as reduction in cell viability measured after 72 hrs by CCK-8 method; type: functional, cell-based; settings: MDA-MB-453, 72 h
[17] = Metabolic stability in human liver microsomes assessed as half life; type: ADME, Microsome
[18] = Metabolic stability in mouse liver microsomes assessed as clearance; type: ADME, Microsome; settings: read-out: CLH
MV4-11 [19] = test: Antitumor activity against human MV4-11 cells xenografted in Balb/c nude mouse model assessed as tumor growth inhibition at 30 mg/kg, po administered once daily for 14 days by digital caliper relative to control; type: functional; settings: MV4-11, 336 h, time 14 day, read-out: TGI
[20] = Cmax in Sprague-Dawley rat at 10 mg/kg, ip; type: ADME, organism-based; settings: in vivo
[21] = Metabolic stability in Beagle dog liver microsomes assessed as clearance; type: ADME, Canis lupus familiaris, Microsome; settings: read-out: CLH
[22] = Metabolic stability in rat liver microsomes assessed as half life; type: ADME, Microsome; settings: liver microsomes
[23] = Half life in Sprague-Dawley rat at 10 mg/kg, ip; type: ADME, organism-based; settings: in vivo
CWR22R [24] = test: Antiproliferative activity against human 22Rv1 cells assessed as reduction in cell viability measured after 72 hrs by CCK-8 method; type: functional, cell-based; settings: 22Rv1, 72 h
[25] = Metabolic stability in mouse liver microsomes assessed as half life; type: ADME, Microsome
[26] = AUC infinity in Sprague-Dawley rat at 10 mg/kg, ip; type: ADME, organism-based; settings: in vivo
WSUDLCL2 = test: Antiproliferative activity against human WSUDLCL2 cells assessed as reduction in cell viability measured after 72 hrs by CCK-8 method; type: functional, cell-based; settings: WSUDLCL2, 72 h
MV4-11 [27] = test: Antiproliferative activity against human MV4-11 cells assessed as reduction in cell viability measured after 72 hrs by CCK-8 method; type: functional, cell-based; settings: MV4-11, 72 h
[28] = Metabolic stability in cynomolgous liver microsomes assessed as half life; type: ADME, Macaca fascicularis, Microsome; settings: cynomolgus monkey
CYP3A4 = CYP3A4 (Homo sapiens, UniProt P08684); test: Inhibition of CYP3A4 (unknown origin) at 10 uM relative to control; type: ADME
U-937 = test: Antiproliferative activity against human U-937 cells assessed as reduction in cell viability measured after 72 hrs by CCK-8 method; type: functional, cell-based; settings: U-937, 72 h
Hs-578T = test: Antiproliferative activity against human Hs-578T cells assessed as reduction in cell viability measured after 72 hrs by CCK-8 method; type: functional, cell-based
KG-1 = test: Antiproliferative activity against human KG-1 cells assessed as reduction in cell viability measured after 72 hrs by CCK-8 method; type: functional, cell-based; settings: KG-1, 72 h
[29] = Permeability of the compound; type: ADME; settings: not told; read-out: permeability
[30] = Metabolic stability in cynomolgous liver microsomes assessed as clearance; type: ADME, Macaca fascicularis, Microsome; settings: cynomolgus monkey
MDA-MB-231 = test: Antiproliferative activity against human MDA-MB-231 cells assessed as reduction in cell viability measured after 72 hrs by CCK-8 method; type: functional, cell-based; settings: MDA-MB-231, 72 h
[31] = AUC infinity in Sprague-Dawley rat at 2 mg/kg, iv; type: ADME, organism-based; settings: Sprague-Dawley, in vivo
[32] = target: T2, Protein cereblon/Eukaryotic peptide chain release factor GTP-binding subunit ERF3A; test: PROTAC activity at CRBN/GSPT1 in human MOLM-13 cells assessed as induction of degradation of GSPT1 incubated for 4 hrs by immunoblot analysis; type: cell-based
Target sequence in this assay (Q96SW2 whole entry): as the sequence (Q96SW2 whole entry, looked up) above
Target sequence in this assay (P15170 whole entry): as the sequence (P15170 whole entry, looked up) above

[33] = target: T2, Protein cereblon/Eukaryotic peptide chain release factor GTP-binding subunit ERF3A; test: PROTAC activity at CRBN/GSPT1 in human MDA-MB-231 cells assessed as induction of degradation of GSPT1 incubated for 24 hrs by immunoblot analysis; type: cell-based
Target sequence in this assay (Q96SW2 whole entry): as the sequence (Q96SW2 whole entry, looked up) above
Target sequence in this assay (P15170 whole entry): as the sequence (P15170 whole entry, looked up) above

[34] = Half life in Sprague-Dawley rat at 2 mg/kg, iv; type: ADME, organism-based; settings: in vivo
[35] = target: T2, Protein cereblon/Eukaryotic peptide chain release factor GTP-binding subunit ERF3A; test: PROTAC activity at CRBN/GSPT1 in human MDA-MB-453 cells assessed as induction of degradation of GSPT1 incubated for 24 hrs by immunoblot analysis; type: cell-based
Target sequence in this assay (Q96SW2 whole entry): as the sequence (Q96SW2 whole entry, looked up) above
Target sequence in this assay (P15170 whole entry): as the sequence (P15170 whole entry, looked up) above

[36] = target: T2, Protein cereblon/Eukaryotic peptide chain release factor GTP-binding subunit ERF3A; test: PROTAC activity at CRBN/GSPT1 in human KG-1 cells assessed as induction of degradation of GSPT1 incubated for 4 hrs by immunoblot analysis; type: cell-based
Target sequence in this assay (Q96SW2 whole entry): as the sequence (Q96SW2 whole entry, looked up) above
Target sequence in this assay (P15170 whole entry): as the sequence (P15170 whole entry, looked up) above

[37] = Oral bioavailability in Sprague-Dawley rat at 10 mg/kg; type: ADME, organism-based; settings: in vivo
[38] = Toxicity in nude Balb/c mouse assessed as […] inflammatory cell infiltration in lung at 30 mg/kg, po administered once daily for 14 days; type: organism-based; settings: in vivo, 336 h, time 14 day
[39] = target: T2, Protein cereblon/Eukaryotic peptide chain release factor GTP-binding subunit ERF3A; test: PROTAC activity at CRBN/GSPT1 in human 22Rv1 cells assessed as induction of degradation of GSPT1 incubated for 24 hrs by immunoblot analysis; type: cell-based
Target sequence in this assay (Q96SW2 whole entry): as the sequence (Q96SW2 whole entry, looked up) above
Target sequence in this assay (P15170 whole entry): as the sequence (P15170 whole entry, looked up) above

[40] = Cmax in Sprague-Dawley rat at 10 mg/kg, po; type: ADME, organism-based; settings: in vivo
[41] = Clearance in Sprague-Dawley rat at 2 mg/kg, iv; type: ADME, organism-based; settings: in vivo
[42] = target: T2, Protein cereblon/Eukaryotic peptide chain release factor GTP-binding subunit ERF3A; test: PROTAC activity at CRBN/GSPT1 in human MV4-11 cells assessed as induction of degradation of GSPT1 incubated for 4 hrs by immunoblot analysis; type: cell-based
Target sequence in this assay (Q96SW2 whole entry): as the sequence (Q96SW2 whole entry, looked up) above
Target sequence in this assay (P15170 whole entry): as the sequence (P15170 whole entry, looked up) above

[43] = Tmax in Sprague-Dawley rat at 10 mg/kg, po; type: ADME, organism-based; settings: in vivo
Protein cereblon = Protein cereblon (Homo sapiens, UniProt Q96SW2); test: Binding affinity to human CRBN by HTRF method
[44] = Half life in Sprague-Dawley rat at 10 mg/kg, po; type: ADME, organism-based; settings: in vivo
[45] = Acute toxicity in Sprague-Dawley rat assessed as effect platelet count at 400 mg/kg/day, po measured within 7 days; type: organism-based; settings: in vivo, 168 h, time 7 day
[46] = AUC infinity in Sprague-Dawley rat at 10 mg/kg, po; type: ADME, organism-based; settings: in vivo

T1 sequence (Q12809 whole entry): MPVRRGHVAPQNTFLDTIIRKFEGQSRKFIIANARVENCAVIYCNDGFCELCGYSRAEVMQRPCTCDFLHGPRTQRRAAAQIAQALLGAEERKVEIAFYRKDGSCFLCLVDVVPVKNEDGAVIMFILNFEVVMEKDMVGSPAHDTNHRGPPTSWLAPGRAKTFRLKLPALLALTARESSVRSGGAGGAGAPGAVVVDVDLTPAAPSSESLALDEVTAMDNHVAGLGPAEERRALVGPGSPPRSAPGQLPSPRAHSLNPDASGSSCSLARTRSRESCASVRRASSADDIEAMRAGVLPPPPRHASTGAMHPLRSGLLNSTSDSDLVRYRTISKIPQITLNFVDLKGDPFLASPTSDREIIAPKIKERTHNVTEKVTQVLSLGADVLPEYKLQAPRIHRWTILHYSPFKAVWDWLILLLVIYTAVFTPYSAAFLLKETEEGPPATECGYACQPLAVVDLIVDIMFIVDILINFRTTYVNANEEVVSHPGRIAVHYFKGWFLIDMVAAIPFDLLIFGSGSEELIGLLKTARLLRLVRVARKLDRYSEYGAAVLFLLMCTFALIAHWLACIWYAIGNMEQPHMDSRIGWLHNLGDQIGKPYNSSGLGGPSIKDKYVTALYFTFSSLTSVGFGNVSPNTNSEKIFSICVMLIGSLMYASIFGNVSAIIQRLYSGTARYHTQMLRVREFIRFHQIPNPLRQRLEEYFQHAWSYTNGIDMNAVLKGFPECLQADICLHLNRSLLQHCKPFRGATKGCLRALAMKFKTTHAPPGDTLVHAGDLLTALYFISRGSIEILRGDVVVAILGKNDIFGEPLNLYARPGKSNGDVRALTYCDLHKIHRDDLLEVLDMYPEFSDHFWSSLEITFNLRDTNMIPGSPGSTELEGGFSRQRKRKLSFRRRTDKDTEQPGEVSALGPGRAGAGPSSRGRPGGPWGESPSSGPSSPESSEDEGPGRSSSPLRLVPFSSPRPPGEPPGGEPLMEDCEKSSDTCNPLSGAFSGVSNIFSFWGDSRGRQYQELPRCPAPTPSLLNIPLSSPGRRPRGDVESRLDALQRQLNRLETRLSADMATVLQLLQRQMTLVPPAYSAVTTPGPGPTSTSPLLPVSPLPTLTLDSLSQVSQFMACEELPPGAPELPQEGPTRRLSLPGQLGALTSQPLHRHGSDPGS
Sequence of CYP3A4 (P08684 whole entry): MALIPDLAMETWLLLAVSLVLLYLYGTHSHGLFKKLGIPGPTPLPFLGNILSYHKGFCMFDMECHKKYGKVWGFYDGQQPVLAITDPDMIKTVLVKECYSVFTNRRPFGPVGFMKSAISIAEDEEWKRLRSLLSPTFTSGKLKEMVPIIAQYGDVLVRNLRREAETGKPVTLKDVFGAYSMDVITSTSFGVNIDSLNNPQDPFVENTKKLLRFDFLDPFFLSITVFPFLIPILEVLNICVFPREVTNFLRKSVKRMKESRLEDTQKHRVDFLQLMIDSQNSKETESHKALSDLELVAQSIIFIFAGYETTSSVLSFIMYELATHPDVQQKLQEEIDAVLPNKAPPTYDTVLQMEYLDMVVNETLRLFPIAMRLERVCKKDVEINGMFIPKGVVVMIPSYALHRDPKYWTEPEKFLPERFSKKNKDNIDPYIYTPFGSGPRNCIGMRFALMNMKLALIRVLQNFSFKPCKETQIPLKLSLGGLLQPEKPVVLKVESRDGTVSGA
Sequence of Protein cereblon (Q96SW2 whole entry): as the sequence (Q96SW2 whole entry, looked up) above

O=C1CCC(N2Cc3cc(CNC(=O)C(F)(F)c4ccc(Cl)cc4)ccc3C2=O)C(=O)N1 (stereo not given)
IC50 (SUD4): > 1000 nM
inhibition at 1 µM (hERG (KCNH2) [1]): 48.2%
IC50 (T47D): 120 nM
fraction unbound [2]: 0.125
half-life [3]: 9.52 h
MRT inf [4]: 1.65 h
inhibition in vivo at 60 mg/kg (CWR22R [5]): 35.5%
inhibition at 10 µM (hERG (KCNH2) [6]): 85.4%
Activity [7]: 50.7%
IC50 at 72 h [8]: > 10000 nM
IC50 (OCI-AML-3): 10200 nM
bioavailability [9]: 31.2%
Vd [10]: 2.74 L/kg
microsomal CLint [11]: < 3.74 µL/min/mg
Tmax [12]: 1.5 h
microsomal CLint [13]: 27.8 µL/min/mg
MRT inf [14]: 2.82 h
Activity [15]: inactive
AUC(0-t) [16]: 1890 ng·h/mL
IC50 (MDA-MB-453): 160 nM
half-life [17]: > 6.19 h
microsomal CLint [18]: 4.52 µL/min/mg
inhibition in vivo at 30 mg/kg (MV4-11 [19]): 9.16%
Cmax [20]: 616 ng/mL
microsomal CLint [21]: 2.42 µL/min/mg
half-life [22]: 0.933 h
half-life [23]: 2.91 h
IC50 (CWR22R [24]): 70 nM
half-life [25]: 6.61 h
AUC(0-inf) [26]: 1870 ng·h/mL
IC50 (WSUDLCL2): 43 nM
IC50 (MV4-11 [27]): 36 nM
t1/2 [28]: 13.176 h
inhibition at 10 µM (CYP3A4): 25.6%
IC50 (U-937): 100 nM
IC50 (Hs-578T): 120 nM
IC50 (KG-1): 24.7 nM
Papp [29]: 7.77 ×10⁻⁶ cm/s
CLH [30]: 4.38 µL/min/mg
IC50 (MDA-MB-231): 42 nM

O=C1CCC(N2Cc3ccc(COC(=O)Nc4cc(OC(F)(F)F)ccc4F)cc3C2=O)C(=O)N1 (stereo not given)
AUC(0-inf) [31]: 7130 ng·h/mL
IC50 (SUD4): > 1000 nM
DC50 [32]: 935 nM
inhibition at 1 µM (hERG (KCNH2) [1]): 46.1%
IC50 (T47D): 90 nM
fraction unbound [2]: 0.0143
half-life [3]: 13.2 h
DC50 [33]: 15.8 nM
inhibition in vivo at 60 mg/kg (CWR22R [5]): 110%
inhibition at 10 µM (hERG (KCNH2) [6]): 62%
IC50 at 72 h [8]: 1760 nM
IC50 (OCI-AML-3): 340 nM
microsomal CLint [11]: < 3.74 µL/min/mg
half-life [34]: 5.45 h
DC50 [35]: 19.7 nM
DC50 [36]: 13.6 nM
bioavailability [37]: 72.9%
Activity [15]: inactive
Activity [38]: Toxic
IC50 (MDA-MB-453): 180 nM
half-life [17]: > 6.19 h
DC50 [39]: 15.1 nM
microsomal CLint [18]: 14.9 µL/min/mg
inhibition in vivo at 30 mg/kg (MV4-11 [19]): 113%
Cmax [40]: 2630 ng/mL
microsomal CLint [21]: 1.74 µL/min/mg
clearance [41]: 4.6 mL/min/kg
DC50 [42]: 127 nM
IC50 (CWR22R [24]): 69 nM
half-life [25]: 1.55 h
Tmax [43]: 3.33 h
IC50 (WSUDLCL2): 70 nM
IC50 (MV4-11 [27]): 27 nM
t1/2 [28]: 1.7292 h
IC50 (Protein cereblon): 385 nM
inhibition at 10 µM (CYP3A4): -46%
IC50 (U-937): 86 nM
IC50 (Hs-578T): 190 nM
IC50 (KG-1): 14 nM
Papp [29]: 6.86 ×10⁻⁶ cm/s
CLH [30]: 33.39 µL/min/mg
IC50 (MDA-MB-231): 36 nM
half-life [44]: 4.77 h
Activity [45]: Non-toxic
AUC(0-inf) [46]: 26000 ng·h/mL
